Reference: US9820972B2, “Antiviral compounds highly effective as HCV-NS5A inhibitor” (priority 2013, dated 2017)
Like-named read-outs stand apart in the source and are kept apart here.

Columns and labels:
[1] = test system: HCV NS5A Replicon GT-2a; assay: HCV double reporter gene replicon assay, GT-2a; format: cell-based; details: Hepatitis C virus, genotype 1a / genotype 2a / genotype 6a; GT-2a replicon
Protocol: (§1) Antiviral Assay for Inhibition Activity (EC50):
(§2) The study is completed by a new constructed double reporter genes replicon assay system, the capacity of viral replicon in infected cell is determined by detecting the reporter gene Renilla luciferase. The relationship of reporter genes, HCV RNA replicon and viral proteins is well linear. 8 gradient concentrations for 2-fold dilution, 3 wells, 3 times repetition and 1 or 2 control drugs are set to finally determine EC50 of compound.
(§3) THF was distilled from sodium metal and benzophenone. DCM, pentane and hexane were distilled form calcium hydride. Special raw material and intermediate in the invention were ordered by contract synthesis from Zannan SciTech Co., Let in China, others reagents were purchased from Shanghai reagent company, Aldrich, Acros etc. As intermediates or products during the synthesis is not required for the reaction and other tests the next step, the synthesis is repeated until a sufficient number of times. The invention of the prepared compounds of […] (HCV NS5A) inhibitory activity test was performed by CRO service units such as WuXi AppTec etc.

[2] = test system: GT-1a of NS5A Replicon; assay: HCV double reporter gene (Renilla luciferase) replicon assay, GT-1a; format: cell-based, Hepatitis C virus (HCV); details: Hepatitis C virus
Outline: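 Replication measured in a double-reporter HCV replicon cell system by Renilla luciferase signal. EC50 from 8-point 2-fold dilutions, triplicate wells, three repeats, with 1 or 2 control drugs.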

[3] = test system: HCV NS5A Replicon GT-6a; assay: HCV double reporter gene replicon assay, GT-6a; format: cell-based; details: Hepatitis C virus, genotype 1a / genotype 6a; GT-6a replicon
Protocol: as §1, §2, §3

[4] = test system: HCV NS5A Replicon GT-1b; assay: HCV double reporter gene replicon assay, GT-1b; format: cell-based; details: Hepatitis C virus, genotype 1a / genotype 1b / genotype 6a; GT-1b replicon
Protocol: as §1, §2, §3

[5] = Acute Toxicity Study (MTD); format: in vivo, rats and mice; details: rats or mice, fed once, oral dose 10000 mg/kg, observed for a week
Source text: Acute Toxicity Study (MTD):
Materials and Methods for MTD Study are as follows:
Animals were fed freely for adaptation more than 1 week. Healthy rats, body weight between 170-190 g, were divided randomly into 3 groups, 5 male and 5 female in each group. Healthy mice, body weight between 18-22 g, were divided randomly into 22 groups, 5 male and 5 female in each group.
In rats, the compound weighing 21.00 g, serial number 1-3 respectively, adding 0.7% sodium carboxymethyl cellulose solution 30.00 g, high-speed homogenizer machine 15000 RPM, 10 min mixing, the rats were fed once, oral dose 10000 mg/kg. In mice, the compound weighing 2.00 g, serial number 4-25 respectively, adding 0.7% sodium carboxymethyl cellulose solution 8.00 g, high-speed homogenizer machine 10000 RPM, 10 min mixing, the mice were fed once, oral dose 10000 mg/kg.
Animals were observed every hour after administration in the first day, and behavior observation daily continuous for a week. Dead animals were necropsied, gross pathology of the organs were observed and recorded.
Toxicity was evaluated by animal mortality, signs of clinical behavior and others.

[6] = genotype 1a / genotype 6a, read-out: EC50 for Replicon (pM) of GT-1a to GT-6a: 1a
[7] = GT1A, GT-1a replicon, class symbols, read-out: EC50 For GT-1a of NS5A Replicon

| Structure (SMILES) | MTD results: test-article related death and adverse events [5] | EC50 [2, 7] [pM] | also measured |
| --- | --- | --- | --- |
| COC(=O)N[C@H](C(=O)N1CCC[C@H]1c1nc(-c2ccc(-c3ccc(-c4cnc([C@@H]5C=CCN5C(=O)[C@H](NC(=O)OC)c5ccccc5)[nH]4)cc3)cc2)c[nH]1)C(C)C [Compound 6dy] |  |  | EC50 [1]: 6 pM; EC50 [2, 6]: 11 pM; EC50 [3]: 24 pM; EC50 [4]: 14 pM |
| COC(=O)N[C@H](C(=O)N1CCCC1c1nc(-c2cc3sc(-c4ccc(-c5c[nH]c(C6C=CCN6C(=O)[C@H](NC(=O)OC)c6ccccc6)n5)cc4)cc3s2)c[nH]1)C(C)C (stereo partly drawn) [Compound 6fc] | no any test-article related death and no any adverse events observed |  |  |
| COC(=O)N[C@H](C(=O)N1CC=CC1c1nc(-c2ccc(-c3ccc(-c4c[nH]c(C5CCCN5C(=O)[C@H](NC(=O)OC)c5ccccc5)n4)cc3)cc2)c[nH]1)C(C)C (stereo partly drawn) [Compound 6by] | no any test-article related death and no any adverse events observed | 1 to 999 |  |
| COC(=O)N[C@H](C(=O)N1CCC[C@H]1c1ncc(-c2ccc(-c3cc4sc(-c5cnc([C@@H]6C=CCN6C(=O)[C@H](NC(=O)OC)c6ccccc6)[nH]5)cc4s3)cc2)[nH]1)C(C)C [Compound 6fm] | no any test-article related death and no any adverse events observed |  | EC50 [1]: 8 pM; EC50 [2, 6]: 9 pM; EC50 [3]: 23 pM; EC50 [4]: 13 pM |
| COC(=O)N[C@H](C(=O)N1CCCC1c1nc(-c2ccc(-c3ccc(-c4c[nH]c(C5C=CCN5C(=O)[C@H](NC(=O)OC)c5ccccc5)n4)cc3)cc2)c[nH]1)C(C)C (stereo partly drawn) [Compound 6bx] | no any test-article related death and no any adverse events observed | 1 to 999 |  |
| COC(=O)N[C@H](C(=O)N1CC=C[C@H]1c1ncc(-c2ccc(-c3cc4sc(-c5cnc([C@@H]6CCCN6C(=O)[C@@H](NC(=O)OC)C(C)C)[nH]5)cc4s3)cc2)[nH]1)C(C)C [Compound 6fg] | no any test-article related death and no any adverse events observed | 1 to 999 |  |
| COC(=O)N[C@@H](C(=O)N1CC=CC1c1nc(-c2ccc(-c3ccc(-c4c[nH]c(C5CCCN5C(=O)[C@H](NC(=O)OC)c5ccccc5)n4)cc3)cc2)c[nH]1)c1ccccc1 (stereo partly drawn) [Compound 6bz] | no any test-article related death and no any adverse events observed | 1 to 999 |  |
| COC(=O)N[C@H](C(=O)N1CC=C[C@H]1c1ncc(-c2cc3sc(-c4ccc(-c5cnc([C@@H]6CCCN6C(=O)[C@H](NC(=O)OC)c6ccccc6)[nH]5)cc4)cc3s2)[nH]1)C(C)C [Compound 6fp] | no any test-article related death and no any adverse events observed | 1 to 999 |  |
| COC(=O)N[C@H](C(=O)N1CC=C[C@H]1c1ncc(-c2ccc(-c3ccc(-c4c[nH]c([C@@H]5CCCN5C(=O)[C@@H](NC(=O)OC)C(C)C)n4)cc3)cc2)[nH]1)C(C)C [Compound 6ba] | no any test-article related death and no any adverse events observed |  | EC50 [1]: 16 pM; EC50 [2, 6]: 39 pM; EC50 [3]: 221 pM; EC50 [4]: 12 pM |
| COC(=O)N[C@H](C(=O)N1CC=C[C@H]1c1ncc(-c2ccc(-c3ccc(-c4cnc([C@@H]5CN(C(=O)OC)CN5C(=O)[C@@H](NC(=O)OC)C(C)C)[nH]4)cc3)cc2)[nH]1)C(C)C [Compound 6db] |  | 1 to 999 |  |
| COC(=O)N[C@H](C(=O)N1CN(C(=O)N2Cc3cc(OC)c(OC)cc3C2)CC1c1nc(-c2ccc(-c3ccc(-c4c[nH]c([C@@H]5CCCN5C(=O)[C@@H](NC(=O)OC)C(C)C)n4)cc3)cc2)c[nH]1)C(C)C (stereo partly drawn) [Compound 6ax] |  | 1 to 999 |  |
| COC(=O)N[C@H](C(=O)N1CCCC1c1nc(-c2ccc(-c3ccc(-c4c[nH]c([C@@H]5C=CCN5C(=O)C(NC(=O)N(C)C)C(C)C)n4)cc3)cc2)c[nH]1)C(C)C (stereo partly drawn) [Compound 6ci] |  | 1 to 999 |  |
| COC(=O)N[C@H](C(=O)N1CC=C[C@H]1c1nc(-c2ccc(-c3ccc(-c4cnc([C@@H]5CC6(CN5C(=O)[C@H](NC(=O)OC)c5ccccc5)OCCO6)[nH]4)cc3)cc2)c[nH]1)C(C)C [Compound 6du] |  | 1 to 999 |  |
| COC(=O)N[C@@H](C(=O)N1CC=CC1c1nc(-c2ccc(-c3ccc(-c4c[nH]c(C5C=CCN5C(=O)[C@H](NC(=O)OC)c5ccccc5)n4)cc3)cc2)c[nH]1)c1ccccc1 (stereo partly drawn) [Compound 6ca] |  | 1 to 999 |  |
| COC(=O)N[C@H](C(=O)N1CCCC1c1nc(-c2ccc(-c3ccc(-c4c[nH]c([C@@H]5CCCN5C(=O)C5(NC(=O)OC)CCCC5)n4)cc3)cc2)c[nH]1)C(C)C (stereo partly drawn) [Compound 6z] |  | 1 to 999 |  |
| COC(=O)N[C@H](C(=O)N1CC=C[C@H]1c1ncc(-c2ccc(-c3cc4sc(-c5cnc([C@@H]6CCCN6C(=O)[C@H](NC(=O)OC)c6ccccc6)[nH]5)cc4s3)cc2)[nH]1)C(C)C [Compound 6fi] | no any test-article related death and no any adverse events observed |  | EC50 [1]: 7 pM; EC50 [2, 6]: 20 pM; EC50 [3]: 55 pM; EC50 [4]: 5 pM |
| COC(=O)N[C@H](C(=O)N1CC(OC(=O)N2Cc3cc4c(cc3C2)OCO4)CC1c1nc(-c2ccc3c(ccc4cc(-c5c[nH]c([C@@H]6CCCN6C(=O)[C@@H](NC(=O)OC)C(C)C)n5)ccc43)c2)c[nH]1)C(C)C (stereo partly drawn) [Compound 6bt] |  | 1 to 999 |  |
| COC(=O)N[C@H](C(=O)N1CC(OC(=O)N2Cc3cc4c(cc3C2)OCO4)CC1c1nc(-c2ccc(-c3cccc4c(-c5c[nH]c([C@@H]6CCCN6C(=O)[C@@H](NC(=O)OC)C(C)C)n5)cccc34)cc2)c[nH]1)C(C)C (stereo partly drawn) [Compound 6bu] |  | 1 to 999 |  |
| COC(=O)N[C@H](C(=O)N1CN(C(=O)N2Cc3cc4c(cc3C2)OCO4)CC1c1nc(-c2ccc(-c3ccc(-c4c[nH]c([C@@H]5CC6(CC6)CN5C(=O)[C@@H](NC(=O)OC)C(C)C)n4)cc3)cc2)c[nH]1)C(C)C (stereo partly drawn) [Compound 6am] |  | 1 to 999 |  |
| COC(=O)N[C@H](C(=O)N1CN(C(=O)N2Cc3ccccc3C2)CC1c1nc(-c2ccc(-c3ccc(-c4c[nH]c([C@@H]5CCCN5C(=O)[C@@H](NC(=O)OC)C(C)C)n4)cc3)cc2)c[nH]1)C(C)C (stereo partly drawn) [Compound 6aq] |  | 1 to 999 |  |
| CC(C)[C@H](NC(=O)OC(C)(C)C)C(=O)N1CCC[C@H]1c1nc(-c2ccc(-c3ccc(-c4cnc([C@@H]5C[C@@H](OC(=O)N6Cc7cc8c(cc7C6)OCO8)CN5C(=O)[C@@H](NC(=O)OC(C)(C)C)C(C)C)[nH]4)cc3)cc2)c[nH]1 [Compound 6j] |  | > 50000 |  |
| COC(=O)N[C@H](C(=O)N1CN(C(=O)N2Cc3cc4c(cc3C2)OCO4)CC1c1nc(-c2cc3sc(-c4ccc(-c5c[nH]c([C@@H]6CCCN6C(=O)[C@@H](NC(=O)OC)C(C)C)n5)cc4)cc3s2)c[nH]1)C(C)C (stereo partly drawn) [Compound 6fa] |  | 1 to 999 |  |
| COC(=O)N[C@H](C(=O)N1CC=CC1c1nc(-c2ccc(-c3ccc(-c4c[nH]c([C@@H]5COCCN5C(=O)[C@@H](NC(=O)OC)C(C)C)n4)cc3)cc2)c[nH]1)C(C)C (stereo partly drawn) [Compound 6bm] |  | 1 to 999 |  |
| COC(=O)N[C@H](C(=O)N1CC=CC1c1ncc(-c2ccc(-c3csc4c(-c5c[nH]c([C@@H]6CCCN6C(=O)[C@H](NC(=O)OC)c6ccccc6)n5)csc34)cc2)[nH]1)C(C)C (stereo partly drawn) [Compound 6ft] |  | 1 to 999 |  |
| COC(=O)N[C@H](C(=O)N1CCCCC1c1nc(-c2ccc(-c3ccc(-c4c[nH]c([C@@H]5COCCN5C(=O)[C@@H](NC(=O)OC)C(C)C)n4)cc3)cc2)c[nH]1)C(C)C (stereo partly drawn) [Compound 6aj] |  | 1 to 999 |  |
| COC(=O)N[C@H](C(=O)N1CCC[C@H]1c1nc(-c2ccc(-c3ccc(-c4c[nH]c([C@@H]5CCCN5C(=O)[C@@H](NC(=O)OC)C(C)C)n4)cc3)cc2)c[nH]1)C(C)C [Ref-1, reference compound] |  |  | EC50 [1]: 29 pM; EC50 [2, 6]: 52 pM; EC50 [3]: 118 pM; EC50 [4]: 21 pM |
| COC(=O)NC(C(=O)N1CCC[C@H]1c1nc(-c2cc3sc(-c4ccc(-c5c[nH]c(C6CN(C(=O)N7Cc8cc9c(cc8C7)OCO9)CN6C(=O)[C@@H](NC(=O)OC)C(C)C)n5)cc4)cc3s2)c[nH]1)c1ccccc1 (stereo partly drawn) [Compound 6fb] |  | 1 to 999 |  |
| COC(=O)N[C@@H](C(=O)N1CC=C[C@H]1c1ncc(-c2ccc(-c3cc4sc(-c5cnc([C@@H]6CCCN6C(=O)[C@H](NC(=O)OC)c6ccccc6)[nH]5)cc4s3)cc2)[nH]1)c1ccccc1 [Compound 6fh] |  | 1 to 999 |  |
